Consider three molecules from ChEMBL document CHEMBL1150289, “Petiolins A-C, phloroglucinol derivatives from Hypericum pseudopetiolatum var. kiusianum” (Bioorg Med Chem, 2008).

Molecules are shown by their SMILES. Converted amounts (≈) assume the structure as drawn.

The test system of assay [1] is KB. The experiment in a line: Cytotoxicity against human KB cells. The class given is functional, cell-based.
The subject of assay [2] is L1210. Briefly: Cytotoxicity against mouse L1210 cells. Type of assay: functional, cell-based.
Assay [3] relates to Trichophyton mentagrophytes. The experiment in a line: Antifungal activity against Trichophyton mentagrophytes. Type of assay: functional.

Regarding `CC(C)=CCCC1(C)C=CC2=C(O1)C(C)(C)C(=O)C(C(=O)C(C)C)=C2O` (configuration not stated) [PETIOLIN A], the IC50 in assay [1] is 4.8 µg/mL (≈ 13.4 µM); in assay [2], 2.5 µg/mL (≈ 6.97 µM).

`CCC(C)C(=O)C1=C(O)C2=C(OC(C)(CCC=C(C)C)C=C2)C(C)(C)C1=O` (configuration not stated) [PETIOLIN B]: the IC50 in assay [1] was 9.6 µg/mL (≈ 25.8 µM); in assay [2], > 10 µg/mL.

`CC(C)=CCC[C@@](C)(O)[C@@H]1CC2=C(O1)/C(=C(/O)C(C)C)C(=O)C(C)(C)C2=O` [PETIOLIN C]: the MIC in assay [3] is 33.3 µg/mL (≈ 88.4 µM). Besides, the figures for the IC50 in assay [1] and in assay [2] were 4.9 µg/mL (≈ 13 µM) and 3.3 µg/mL (≈ 8.77 µM), respectively.

One may read the IC50 as the point on the concentration scale where inhibition reaches its midpoint. High values mean lower potency, low ones higher potency. A word on the MIC: it is the smallest concentration in the dilution series that meets the test's criterion for growth inhibition. Low readings indicate inhibition by little substance, high ones a need for much substance.
